Assay results taken from patent US8236492B2 (priority 2003, dated 2012).

System: ileal fluid dependant organism (IFDO)
Type: cell-based

| SMILES | Log10 Reduction of Colonies | efficacy of LpH phenols tested at equivocal concentrations |
| --- | --- | --- |
| Oc1ccc(Cl)cc1Cc1cc(Cl)ccc1O [2,2-Methylenebis(4-chlorophenol)] | 3.8 |  |
| Cc1cccc(O)c1C [2,3-Dimethylphenol] | 4.1 |  |
| Oc1cc(Cl)c(Cl)cc1Cl [2,4,5-Trichlorophenol] | 4.9 |  |
| Oc1c(Cl)cc(Cl)c(Cl)c1Cc1c(O)c(Cl)cc(Cl)c1Cl [Hexachlorophene] | 3.6 |  |
| CCC(C)(C)c1ccc(O)cc1 [PTAP, p-tertiary-amylphenol] |  | less effective |
| Oc1ccccc1 [Phenol] | 3.6 |  |
| Cc1ccc(C(C)C)c(O)c1 [Thymol] | 3.2 |  |
| Oc1cc(Cl)ccc1Oc1ccc(Cl)cc1Cl [Triclosan] | 2.7 |  |
| Oc1ccc(Cl)cc1Cc1ccccc1 [o-Benzyl-p-chlorophenol] | 4.7 | optimal |
| Oc1ccccc1-c1ccccc1 [o-Phenylphenol] | 4.8 | optimal |
| Cc1cc(O)ccc1Cl [p-Chloro-m-cresol] | 4.3 |  |
| Cc1ccc(O)cc1 [p-Cresol] | 3.7 |  |
